Measurements from patent US8362012B2, “Benzoxazine benzimidazole derivative, a pharmaceutical composition comprising the same, and a use thereof” (Daewoong Pharmaceutical Co., Ltd., priority 2008, dated 2013).

Molecular target: T1, human vanilloid-1 (hVR-1) in hVR-1-HEK293 cell line (Homo sapiens, UniProt Q8NER1)
T1 construct: expressed in transfected cells; host or cells: HEK293 Tet-on strain, doxycycline-induced
Experiment: Inhibitory effect on calcium influx via a vanilloid receptor (capsaicin-stimulated, Fluo-3/AM)
Format: cell-based
Conditions: hVR-1-HEK293 cells, 1 μM of capsaicin, compounds 0.015˜2000 nM; read-out: I.A. (inhibitory activity), IC50 on intracellular calcium influx
Procedure: The cell line can modulate the expression of VR-1, depending on whether doxycycline, a derivative of tetracycline, is present or not. […] Specifically, hVR-1-HEK293 cells were cultured in a T75 flask to about 80% confluency, separated from the flask by treating with trypsin solution, and then collected by centrifugation. The cells were suspended in a medium containing 1 μg/mL of doxycycline, and the resulting suspension was diluted to a concentration of 2˜4×10^5 cells/mL […], of the cell suspension was placed in each well of a 96-well black plate. The cells were cultured in 5% CO2 incubator at 37° C. for 2 days, and used for the following procedure. […] The cells prepared in 1) above were cultured at 37° C. for 90 min in a solution containing Fluo-3/AM, a fluorescent dye, as a calcium indicator so that the fluorescent dye was permeated into the cells. […] In order to stimulate calcium influx through a vanilloid receptor, the cells were treated with 1 μM of capsaicin. […] The obtained data were input to the Hill equation represented by the following formula I and the values were analyzed: Intracellular calcium influx= [(fluorescent intensity of experimental group−fluorescent intensity of background)/(fluorescent intensity of positive control−fluorescent intensity of background)]*100 [Formula I] The inhibitory activities were evaluated from the obtained intracellular calcium influx values according to the following criteria.

T1 sequence (Q8NER1 whole entry): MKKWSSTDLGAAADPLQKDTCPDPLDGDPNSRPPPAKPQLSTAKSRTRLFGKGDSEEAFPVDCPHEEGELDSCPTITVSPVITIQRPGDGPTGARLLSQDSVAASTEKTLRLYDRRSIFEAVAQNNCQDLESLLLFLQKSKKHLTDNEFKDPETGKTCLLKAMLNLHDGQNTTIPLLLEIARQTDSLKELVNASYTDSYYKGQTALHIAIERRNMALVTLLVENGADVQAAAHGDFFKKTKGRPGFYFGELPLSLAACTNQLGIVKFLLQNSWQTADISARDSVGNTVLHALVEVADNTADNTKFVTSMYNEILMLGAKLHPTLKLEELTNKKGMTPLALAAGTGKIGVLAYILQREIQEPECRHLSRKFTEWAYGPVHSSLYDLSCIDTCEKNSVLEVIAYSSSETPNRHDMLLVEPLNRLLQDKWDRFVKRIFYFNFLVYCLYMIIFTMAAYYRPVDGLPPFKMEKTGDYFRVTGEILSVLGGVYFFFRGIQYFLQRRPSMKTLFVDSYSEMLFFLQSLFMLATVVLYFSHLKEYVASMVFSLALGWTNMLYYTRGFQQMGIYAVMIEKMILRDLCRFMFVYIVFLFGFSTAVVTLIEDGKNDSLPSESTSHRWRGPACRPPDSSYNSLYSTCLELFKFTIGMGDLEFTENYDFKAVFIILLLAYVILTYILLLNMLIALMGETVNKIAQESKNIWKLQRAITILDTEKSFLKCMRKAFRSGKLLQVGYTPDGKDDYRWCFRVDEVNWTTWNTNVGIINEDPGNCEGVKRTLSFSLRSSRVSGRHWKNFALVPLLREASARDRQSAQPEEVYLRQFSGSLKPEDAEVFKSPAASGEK

IC50 [nM]	SMILES
> 1000	FC(F)(F)c1ccc2nc(-c3cccc4c3OCCN4c3ncccc3C(F)(F)F)[nH]c2c1 [Example 17, 8-(6-trifluoromethyl-1H-benzimidazol-2-yl)-4-(3-trifluoromethyl-pyridin-2-yl)-3,4-dihydro-2H-benzo[1,4]oxazine]
101 to 500	CC(C)(C)c1ccc2nc(-c3cccc4c3OCCN4c3ccc(C(F)(F)F)cn3)[nH]c2c1 [Example 8, 8-(6-tert-butyl-1H-benzimidazol-2-yl)-4-(5-trifluoromethyl-pyridin-2-yl)-3,4-dihydro-2H-benzo[1,4]oxazine]
101 to 500	C=Cc1ccc(N2c3cccc(-c4nc5c(C(F)(F)F)cc(C(F)(F)F)cc5[nH]4)c3OC[C@@H]2CO)nc1 [Example 71, ((S)-8-(4,6-bis(trifluoromethyl)-1H-benzo[d]imidazol-2-yl)-4-(5-vinyl-pyridin-2-yl)-3,4-dihydro-2H-benzo[b][1,4]oxazin-3-yl)-methanol]
20 to 100	CCc1ccc(N2c3cccc(-c4nc5cc(F)c(F)cc5[nH]4)c3OC[C@@H]2CO)nc1 [Example 83, [(S)-8-(5,6-difluoro-1H-benzimidazol-2-yl)-4-(5-ethyl-pyridin-2-yl)-3,4-dihydro-2H-benzo[1,4]oxazin-3-yl]-methanol]
101 to 500	Clc1cccnc1N1CCOc2c(-c3nc4ccc(Br)cc4[nH]3)cccc21 [Example 21, 8-(6-bromo-1H-benzimidazol-2-yl)-4-(3-chloro-pyridin-2-yl)-3,4-dihydro-2H-benzo[1,4]oxazine]
> 1000	Clc1ccc2nc(-c3cccc4c3OCCN4c3ncccc3Cl)[nH]c2c1 [Example 22, 8-(6-chloro-1H-benzimidazol-2-yl)-4-(3-chloro-pyridin-2-yl)-3,4-dihydro-2H-benzo[1,4]oxazine]
101 to 500	C=Cc1ccc(N2c3cccc(-c4nc5ccc(C)cc5[nH]4)c3OC[C@@H]2CO)nc1 [Example 74, (S)-(8-(6-methyl-1H-benzo[d]imidazol-2-yl)-4-(5-vinyl-pyridin-2-yl)-3,4-dihydro-2H-benzo[b][1,4]oxazin-3-yl)methanol]
20 to 100	C=Cc1ccc(N2c3cccc(-c4nc5c(C)cccc5[nH]4)c3OC[C@@H]2CO)nc1 [Example 76, (S)-(8-(4-methyl-1H-benzo[d]imidazol-2-yl)-4-(5-vinyl-pyridin-2-yl)-3,4-dihydro-2H-benzo[b][1,4]oxazin-3-yl)methanol]
20 to 100	CC(C)(C)c1ccc2[nH]c(-c3cccc4c3OCCN4c3ncc(Cl)cc3Cl)nc2c1 [Example 11, 8-(5-tert-butyl-1H-benzimidazol-2-yl)-4-(3,5-dichloro-pyridin-2-yl)-3,4-dihydro-2H-benzo[1,4]oxazine]
20 to 100	C=Cc1ccc(N2c3cccc(-c4nc5ccc(F)cc5[nH]4)c3OC[C@@H]2CO)nc1 [Example 61, [(S)-8-(6-fluoro-1H-benzimidazol-2-yl)-4-(5-vinyl-pyridin-2-yl)-3,4-dihydro-2H-benzo[1,4]oxazin-3-yl]-methanol]
20 to 100	C=Cc1ccc(N2c3cccc(-c4nc5ccc(C(C)(C)C)cc5[nH]4)c3OC[C@@H]2CO)nc1 [Example 57, [(S)-8-(6-tert-butyl-1H-benzimidazol-2-yl)-4-(5-vinyl-pyridin-2-yl)-3,4-dihydro-2H-benzo[1,4]oxazin-3-yl]-methanol]
101 to 500	CC(C)(C)c1ccc2[nH]c(-c3cccc4c3OCCN4c3ccc(CO)cn3)nc2c1 [Example 15, 6-[8-(5-tert-butyl-1H-benzimidazol-2-yl)-2,3-dihydro-benzo[1,4]oxazin-4-yl]-pyridin-3-yl-methanol]
101 to 500	CC(C)(C)c1ccc2nc(-c3cccc4c3OCCN4c3ncccc3Cl)[nH]c2c1 [Example 6, 8-(6-tert-butyl-1H-benzimidazol-2-yl)-4-(3-chloro-pyridin-2-yl)-3,4-dihydro-2H-benzo[1,4]oxazine]
101 to 500	COC[C@H]1COc2c(-c3nc4cc(C)ccc4[nH]3)cccc2N1c1ccc(C)cn1 [Example 109, (S)-3-(methoxymethyl)-8-(5-methyl-1H-benzo[d]imidazol-2-yl)-4-(5-methyl-pyridin-2-yl)-3,4-dihydro-2H-benzo[b][1,4]oxazine]
20 to 100	C=Cc1ccc(N2c3cccc(-c4nc5c(F)cc(F)cc5[nH]4)c3OC[C@@H]2CO)nc1 [Example 63, [(S)-8-(4,6-difluoro-1H-benzimidazol-2-yl)-4-(5-vinyl-pyridin-2-yl)-3,4-dihydro-2H-benzo[1,4]oxazin-3-yl]-methanol]
101 to 500	Cc1ccc(N2CCOc3c(-c4nc5c(C(F)(F)F)cc(C(F)(F)F)cc5[nH]4)cccc32)nc1 [Example 30, 8-(4,6-bis-trifluoromethyl-1H-benzimidazol-2-yl)-4-(5-methyl-pyridin-2-yl)-3,4-dihydro-2H-benzo[1,4]oxazine]
> 1000	CC(C)(C)c1ccc2nc(-c3cccc4c3OCCN4c3ncccc3C(F)(F)F)[nH]c2c1 [Example 7, 8-(6-tert-butyl-1H-benzimidazol-2-yl)-4-(3-trifluoromethyl-pyridin-2-yl)-3,4-dihydro-2H-benzo[1,4]oxazine]
101 to 500	COC[C@H]1COc2c(-c3nc4ccc(OC)cc4[nH]3)cccc2N1c1ccc(C)cn1 [Example 106, (S)-8-(6-methoxy-1H-benzo[d]imidazol-2-yl)-3-(methoxymethyl)-4-(5-methyl-pyridin-2-yl)-3,4-dihydro-2H-benzo[b][1,4]oxazine]
< 20	Cc1ccc(N2c3cccc(-c4nc5c(Br)cc(OC(F)(F)F)cc5[nH]4)c3OC[C@@H]2CO)nc1 [Example 54, [(S)-8-(4-bromo-6-trifluoromethoxy-1H-benzimidazol-2-yl)-4-(5-methyl-pyridine-2-yl)-3,4-dihydro-2H-benzo[1,4]oxazin-3-yl]-methanol]
< 20	Cc1ccc(N2CCOc3c(-c4nc5cc(C(C)(C)C)ccc5[nH]4)cccc32)nc1 [Example 10, 8-(5-tert-butyl-1H-benzimidazol-2-yl)-4-(5-methyl-pyridin-2-yl)-3,4-dihydro-2H-benzo[1,4]oxazine]
101 to 500	COC[C@H]1COc2c(-c3nc4c(C)cccc4[nH]3)cccc2N1c1ccc(C)cn1 [Example 108, (S)-3-(methoxymethyl)-8-(4-methyl-1H-benzo[d]imidazol-2-yl)-4-(5-methyl-pyridin-2-yl)-3,4-dihydro-2H-benzo[b][1,4]oxazine]
< 20	C=Cc1ccc(N2c3cccc(-c4nc5c(Br)cc(C(F)(F)F)cc5[nH]4)c3OC[C@@H]2CO)nc1 [Example 64, [(S)-8-(4-bromo-6-trifluoromethyl-1H-benzimidazol-2-yl)-4-(5-vinyl-pyridin-2-yl)-3,4-dihydro-2H-benzo[1,4]oxazin-3-yl]-methanol]
101 to 500	Cc1ccc(N2CCOc3c(-c4nc5c(Br)cc(Br)cc5[nH]4)cccc32)nc1 [Example 32, 8-(4,6-dibromo-1H-benzimidazol-2-yl)-4-(5-methyl-pyridin-2-yl)-3,4-dihydro-2H-benzo[1,4]oxazine]
20 to 100	CCc1ccc(N2c3cccc(-c4nc5ccc(C(F)(F)F)cc5[nH]4)c3OC[C@@H]2CO)nc1 [Example 79, [(S)-4-(5-ethyl-pyridin-2-yl)-8-(6-trifluoromethyl-1H-benzimidazol-2-yl)-3,4-dihydro-2H-benzo[1,4]oxazin-3-yl]-methanol]
